Experimental data published in ChEMBL document CHEMBL1130507, “Synthesis and evaluation of benzophenone-based photoaffinity labeling analogs of prenyl pyrophosphates containing stable amide linkages” (Bioorg Med Chem Lett, 1997).

Target: T1, Farnesyltransferase (Saccharomyces cerevisiae S288c, UniProt P22007+P29703)
T1 sequence (P29703 whole entry): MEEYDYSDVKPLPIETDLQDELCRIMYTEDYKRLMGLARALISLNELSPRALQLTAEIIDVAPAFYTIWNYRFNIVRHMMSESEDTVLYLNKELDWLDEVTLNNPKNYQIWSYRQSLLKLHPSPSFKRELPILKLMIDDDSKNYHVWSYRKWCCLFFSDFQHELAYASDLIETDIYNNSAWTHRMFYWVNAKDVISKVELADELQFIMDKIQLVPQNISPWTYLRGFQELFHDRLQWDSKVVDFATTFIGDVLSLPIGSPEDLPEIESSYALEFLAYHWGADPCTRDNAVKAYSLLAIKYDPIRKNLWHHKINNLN
T1 sequence (P22007 whole entry): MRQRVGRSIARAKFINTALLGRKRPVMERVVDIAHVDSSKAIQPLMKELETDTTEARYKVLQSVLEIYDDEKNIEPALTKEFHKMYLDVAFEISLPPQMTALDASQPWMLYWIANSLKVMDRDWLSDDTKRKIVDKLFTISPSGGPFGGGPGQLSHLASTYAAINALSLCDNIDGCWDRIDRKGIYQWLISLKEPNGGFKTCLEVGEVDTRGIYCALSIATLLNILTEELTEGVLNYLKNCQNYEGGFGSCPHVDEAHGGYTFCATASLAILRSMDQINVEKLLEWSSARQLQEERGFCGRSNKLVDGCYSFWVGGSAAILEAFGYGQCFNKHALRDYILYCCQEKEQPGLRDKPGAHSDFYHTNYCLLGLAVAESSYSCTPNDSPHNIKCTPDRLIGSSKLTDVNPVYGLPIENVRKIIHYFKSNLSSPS
Assay: Inhibition of yeast Farnesyl transferase
Type: protein-complex assay

SMILES | IC50 | Ki | Kd
C/C(=C\COP(=O)(O)OP(=O)(O)O)CC/C=C(\C)COC(=O)c1cccc(C(=O)c2ccccc2)c1 | 2300 nM | 380 nM | 
C/C(=C\COP(=O)(O)OP(=O)(O)O)COC(=O)c1cccc(C(=O)c2ccccc2)c1 | 2000 nM | 960 nM | 
C/C(=C\COP(=O)(O)OP(=O)(O)O)CC/C=C(\C)CNC(=O)c1cccc(C(=O)c2ccccc2)c1 | 3700 nM | 700 nM | 
C/C(=C\COP(=O)(O)OP(=O)(O)O)CC/C=C(\C)CN1C(=O)c2ccccc2C1=O | 10000 nM |  | 
C/C(=C\COP(=O)(O)OP(=O)(O)O)CNC(=O)c1cccc(C(=O)c2ccccc2)c1 | 37000 nM | 6000 nM | 
CC(C)=CCC/C(C)=C/CC/C(C)=C/CO[P@@](=O)(O)OP(=O)(O)O [FARNESYL DIPHOSPHATE] |  |  | 75 nM
